Molecular target: T1, ERK2 (Homo sapiens, UniProt P28482)
T1 construct: purchased Jubilant Biosys
Assay: ERK2 HTRF (biochemical) assay
Details: HTRF
Protocol: ERK1 and ERK2 HTRF (Biochemical) Assays
These assays employed a homogeneous time resolved fluorescence (HTRF) technique. The compounds were serially diluted by half-log with concentrations ranging from 0.0005 to 10 uM in the assay buffer (50 mM Tris pH=7.5, 1 mM EGTA, 2 mM DTT, 10 mM MgCl2, 0.1% Tween-20) and 20 uL of substrate-ATP mix [1 uM Biotin-LC-Myelin Basic Protein (MBP) derivatized Peptide (Anaspec)-24 uM ATP (Sigma)] was added to each well of the assay plate. Then 10 uL of enzyme mix [25 nM ERK1 or ERK2 (Jubilant Biosys) in assay buffer] was added to each well. The plate was incubated at room temperature for 60 min with shaking. The HTRF mix [625 nM LANCE® Ultra Europium-anti-phospho-MBP (Perkin Elmer) and 2 nM Phycolink® Streptavidin-Allophycocyanin (SA-APC) (Prozyme) in HTRF buffer (50 mM Tris-HCl pH=7.5, 100 mM NaCl, 0.1% BSA, 0.05% Tween20, 0.5 mM EDTA)] was prepared and 75 uL of this mix was added to the HTRF plate. After incubation for 60 min at room temperature, 10 uL of the reaction mixture was transferred to the HTRF assay plate and incubated for 45 min at room temperature with shaking. Plate was read using Pherastar in HTRF mode (excitation 337 nm, emission 665 & 620 nm). The IC50 values (half maximal inhibitory concentration values) were subsequently determined using a sigmoidal dose-response curve (variable slope) in GraphPad Prism® 5 software.

T1 sequence (P28482 whole entry): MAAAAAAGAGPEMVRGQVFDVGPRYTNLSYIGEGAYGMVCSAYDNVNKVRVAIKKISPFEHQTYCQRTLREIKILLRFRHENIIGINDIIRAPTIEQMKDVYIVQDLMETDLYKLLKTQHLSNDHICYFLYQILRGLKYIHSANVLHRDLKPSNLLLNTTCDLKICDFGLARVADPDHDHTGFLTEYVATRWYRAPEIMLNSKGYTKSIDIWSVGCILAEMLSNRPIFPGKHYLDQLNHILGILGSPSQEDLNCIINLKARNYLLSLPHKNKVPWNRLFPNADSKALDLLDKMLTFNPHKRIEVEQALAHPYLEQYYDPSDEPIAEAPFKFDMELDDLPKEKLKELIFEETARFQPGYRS

| IC50 | SMILES |
| --- | --- |
| > 2500 nM | O=C(NCc1cccc(Cl)c1)Nc1cnn(-c2ccnc(Nc3ccccc3Cl)n2)c1 [Compound 9, 1-(3-chlorobenzyl)-3-(1-(2-((2-chloro-phenyl)amino)pyrimidin-4-yl)-1H-pyrazol-4-yl)urea] |
| > 2500 nM | C[C@@H](NC(=O)Nc1cnn(-c2ccnc(Nc3ccccc3Cl)n2)c1)c1cccc(Cl)c1 [Compound 10] |
| > 2500 nM | Cc1c(NC(=O)N[C@H](CO)c2cccc(Cl)c2)cnn1-c1ccnc(Nc2ccccc2Cl)n1 [Compound 11, (S)-1-(1-(3-chlorophenyl)-2-hydroxyethyl)-3-(1-(2-((2-chloro-phenyl)amino)pyrimidin-4-yl)-5-methyl-1H-pyrazol-4-yl)urea] |
| ≤ 50 nM | Cc1cnc(Nc2ccc3c(c2)OCO3)nc1-n1cc(C(=O)N[C@H](CO)c2cccc(Cl)c2)cn1 [Compound 50, (S)-1-(2-(benzo[d][1,3]dioxol-5-ylamino)-5-methylpyrimidin-4-yl)-N-(1-(3-chloro-phenyl)-2-hydroxy-ethyl)-1H-pyrazole-4-carboxamide] |
| 100 to 500 nM | O=C(NC(CO)c1cccc(Cl)c1)c1cnn(-c2ccnc(Nc3ccccc3)n2)c1 (stereo not shown) [Compound 52, N-(1-(3-chloro-phenyl)-2-hydroxy-ethyl)-1-(2-(phenyl-amino)pyrimidin-4-yl)-1H-pyrazole-4-carboxamide] |
| 100 to 500 nM | Cc1cnc(Nc2ccc(F)cc2Cl)nc1-n1cc(NC(=O)N[C@@H](CO)c2cccc(Cl)c2)cn1 [Compound 56, (R)-1-(1-(2-((2-chloro-4-fluoro-phenyl)amino)-5-methylpyrimidin-4-yl)-1H-pyrazol-4-yl)-3-(1-(3-chloro-phenyl)-2-hydroxy-ethyl)urea] |
| 500 to 2500 nM | Cc1cnc(Nc2ccccc2Cl)nc1-n1cc(NC(=O)N[C@@H](CO)c2cccc(Cl)c2)cn1 [Compound 61, (R)-1-(1-(3-chlorophenyl)-2-hydroxyethyl)-3-(1-(2-((2-chloro-phenyl)amino)-5-methylpyrimidin-4-yl)-1H-pyrazol-4-yl)urea] |
| ≤ 50 nM | Cc1cnc(Nc2ccc3occc3c2)nc1-n1ccc(C(=O)NC(CO)c2ccccc2)c1 (stereo not shown) [Compound 65, 1-(2-(benzofuran-5-ylamino)-5-methylpyrimidin-4-yl)-N-(2-hydroxy-1-phenylethyl)-1H-pyrrole-3-carboxamide] |
| 100 to 500 nM | Cc1cnc(Nc2ccc(F)cc2Cl)nc1-n1ccc(C(=O)N[C@@H](CN(C)C)c2ccccc2)c1 [Compound 97, (R)-1-(2-((2-chloro-4-fluorophenyl)amino)-5-methy-lpyrimidin-4-yl)-N-(2-(dimethylamino)-1-phenylethyl)-1H-pyrrole-3-carboxamide] |
| 100 to 500 nM | Cc1cnc(Nc2ccc3ocnc3c2)nc1-n1ccc(C(=O)NC(CO)c2ccccc2)c1 (stereo not shown) [Compound 104] |
| 100 to 500 nM | NCC(Cc1ccccc1)NC(=O)c1ccn(-c2ccnc(Nc3ccc(F)cc3)c2)c1 (stereo not shown) [Compound 119, N-(1-amino-3-phenylpropan-2-yl)-1-(2-((4-fluoro-phenyl)amino)pyridin-4-yl)-1H-pyrrole-3-carboxamide] |
| 100 to 500 nM | Cc1cnc(NC2CCOCC2)nc1-n1ccc(C(=O)NC(CO)c2ccccc2)c1 (stereo not shown) [Compound 120, N-(2-hydroxy-1-phenylethyl)-1-(5-methyl-2-((tetrahydro-2H-pyran-4-yl)amino)pyrimidin-4-yl)-1H-pyrrole-3-carboxamide] |
| > 2500 nM | O=C(NC(CO)c1ccccc1)c1ccn(-c2nc(Nc3ccc(F)cc3Cl)ncc2C(F)(F)F)c1 (stereo not shown) [Compound 122, 1-(2-((2-chloro-4-fluorophenyl)amino)-5-(trifluoro-methyl)pyrimidin-4-yl)-N-(2-hydroxy-1-phenylethyl)-1H-pyrrole-3-carboxamide] |

Source: patent US9896445B2, “Heterocyclic inhibitors of ERK1 and ERK2 and their use in the treatment of cancer” (Asana Biosciences, LLC, priority 2015, dated 2018)
